# Reference: patent US20220204560A1, “NOVEL OLIGOPEPTIDE, AND PHARMACEUTICAL COMPOSITION FOR PREVENTING OR TREATING CANCER, COMPRISING THE SAME AS AN ACTIVE INGREDIENT” (L-BASE CO., LTD., priority 2019, published 2022)
# Key:
# [1] = tested on: breast cancer cell line MDA-MB-231; assay: Clonogenic assay, colony formation suppression, breast cancer cell line MDA-MB-231; type: cell-based; conditions: MDA-MB-231, 100 μM or 500 μM, 14 days, compared to control group (FIG. 4)
# [2] = tested on: breast cancer cell line HCC70; assay: CellTiter-Glo Luminescent (CTG) assay, cell activity suppression, breast cancer cell line HCC70; type: cell-based; conditions: HCC70, 100 μM or 500 μM, 72 hours, compared to control group (FIG. 5)
sequence,measurement,setting,value
AQTLTGKT,suppression of colony formation (clonogenic assay),[1],significant effects on suppression of the colony formation
same,"suppression of the activity of cancer cells (amount of ATP, CTG assay)",[2],significant effects on suppression of the colony formation and the activity of cancer cells
"AQTITGKT (Oligopeptide #1 AQTITGKT) [oligopeptide of General Formula A-Q-T-X-T-G-K-T, X is isoleucine]",suppression of colony formation (clonogenic assay),[1],significant effects on suppression of the colony formation
same,"suppression of the activity of cancer cells (amount of ATP, CTG assay)",[2],significant effects on suppression of the colony formation and the activity of cancer cells
